Measurements taken from PubChem BioAssay (NCI).
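Each compound was tested at five concentrations against cells in 96-well plates for 48 hours. Abbreviation: GI50, concentration required for 50% inhibition of growth. TGI marks complete inhibition of growth.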

Key:
Assay in all cases: growth of human tumour cells (NCI), 48 h
NCI-H226 lung = system: NCI-H226 lung
NCI-H460 lung = system: NCI-H460 lung
NCI-H522 lung = system: NCI-H522 lung
NCI/ADR-RES ovarian = system: NCI/ADR-RES ovarian
OVCAR-3 ovarian = system: OVCAR-3 ovarian
OVCAR-4 ovarian = system: OVCAR-4 ovarian
OVCAR-5 ovarian = system: OVCAR-5 ovarian
OVCAR-8 ovarian = system: OVCAR-8 ovarian
PC-3 prostate = system: PC-3 prostate
RPMI-8226 leukemia = system: RPMI-8226 leukemia
RXF 393 renal = system: RXF 393 renal
SF-268 CNS = system: SF-268 CNS
SF-295 CNS = system: SF-295 CNS
SF-539 CNS = system: SF-539 CNS
SK-MEL-2 melanoma = system: SK-MEL-2 melanoma
SK-MEL-28 melanoma = system: SK-MEL-28 melanoma
SK-MEL-5 melanoma = system: SK-MEL-5 melanoma
SK-OV-3 ovarian = system: SK-OV-3 ovarian
SN12C renal = system: SN12C renal
SNB-19 CNS = system: SNB-19 CNS
SNB-75 CNS = system: SNB-75 CNS
SR leukemia = system: SR leukemia
SW-620 colon = system: SW-620 colon
T-47D breast = system: T-47D breast
U251 CNS = system: U251 CNS
UACC-257 melanoma = system: UACC-257 melanoma
UACC-62 melanoma = system: UACC-62 melanoma
UO-31 renal = system: UO-31 renal

In the case of `NC(CSC(c1ccccc1)(c1ccccc1)c1ccccc1)C(=O)NCC(=O)O` (stereo not given), the TGI (NCI-H226 lung) is reported as > 100 µM, the GI50 (NCI-H460 lung) is reported as 4.27 µM and the TGI (NCI-H460 lung) is reported as 78.8 µM. The GI50 (NCI-H522 lung) was 2.39 µM, the TGI (NCI-H522 lung) was 7.13 µM and the GI50 (NCI/ADR-RES ovarian) was 26.5 µM. The TGI (NCI/ADR-RES ovarian) was > 100 µM, the GI50 (OVCAR-3 ovarian) was 5.15 µM and the TGI (OVCAR-3 ovarian) was 37.2 µM. The GI50 (OVCAR-4 ovarian) was 17.4 µM, the TGI (OVCAR-4 ovarian) was 95.6 µM and the GI50 (OVCAR-5 ovarian) was 22.5 µM. The TGI (OVCAR-5 ovarian) was > 100 µM, the GI50 (OVCAR-8 ovarian) was 5.35 µM and the TGI (OVCAR-8 ovarian) was > 100 µM. The GI50 (PC-3 prostate) was 5.25 µM, the TGI (PC-3 prostate) was > 100 µM and the GI50 (RPMI-8226 leukemia) was 3.42 µM. For the same molecule, the TGI (RPMI-8226 leukemia) was 24.5 µM, the GI50 (RXF 393 renal) was 2.84 µM and the TGI (RXF 393 renal) was 19.5 µM. The GI50 (SF-268 CNS) was 5.38 µM, the TGI (SF-268 CNS) was > 100 µM and the GI50 (SF-295 CNS) was 6.1 µM. For the same molecule, the TGI (SF-295 CNS) was > 100 µM, the GI50 (SF-539 CNS) was 2.54 µM and the TGI (SF-539 CNS) was 7.46 µM. The GI50 (SK-MEL-2 melanoma) was 2.71 µM, the TGI (SK-MEL-2 melanoma) was 7.93 µM and the GI50 (SK-MEL-28 melanoma) was 8.19 µM. For the same molecule, the TGI (SK-MEL-28 melanoma) was > 100 µM, the GI50 (SK-MEL-5 melanoma) was 3.4 µM and the TGI (SK-MEL-5 melanoma) was 31.4 µM. It also gave a GI50 (SK-OV-3 ovarian) of 4.33 µM, a TGI (SK-OV-3 ovarian) of 43.7 µM and a GI50 (SN12C renal) of 4.05 µM. For the same molecule, the TGI (SN12C renal) was > 100 µM, the GI50 (SNB-19 CNS) was 8.33 µM and the TGI (SNB-19 CNS) was > 100 µM. For the same molecule, the GI50 (SNB-75 CNS) was 2.95 µM, the TGI (SNB-75 CNS) was 27.7 µM and the GI50 (SR leukemia) was 3.48 µM. For the same molecule, the TGI (SR leukemia) was 38.2 µM, the GI50 (SW-620 colon) was 3.59 µM and the TGI (SW-620 colon) was > 100 µM. For the same molecule, the GI50 (T-47D breast) was 11.6 µM, the TGI (T-47D breast) was > 100 µM and the GI50 (U251 CNS) was 3.64 µM. The TGI (U251 CNS) was 63.8 µM, the GI50 (UACC-257 melanoma) was 5.19 µM and the TGI (UACC-257 melanoma) was > 100 µM. For the same molecule, the GI50 (UACC-62 melanoma) was 7.25 µM, the TGI (UACC-62 melanoma) was > 100 µM and the GI50 (UO-31 renal) was 31.3 µM. For the same molecule, the TGI (UO-31 renal) was > 100 µM.
